Measurements from patent US12370193B2, “Method of inhibiting TREM-1” (UNIVERSITY OF FLORIDA RESEARCH FOUNDATION, INCORPORATED, priority 2019, dated 2025).
pEC50, pIC50: −log10 of the molar value.

Experiments:
TREM-1 [1] = experiment: TREM-1 surface expression by FACS in LPS-stimulated RAW264.7 cells; format: cell-based, mouse; settings: 50 hr incubation
Method: (§1) FIG. 2B are graphs showing TREM-1 gene expression by q-PCR. […] All experiments were performed with 3 biological replicates and the median value of TREM-1 fluorescence was represented by the graph on the bottom.
Flow cytometry and antibodies: For the analysis of macrophage activation, RAW264.7 cells (American Type Culture Collection) were pre-incubated with 5 μM 1903 for 18 h then stimulated with 1 μg/mL LPS (Escherichia coli 0127:B8, Sigma-Aldrich (St. Louis, MO)) for 6 h. RAW264.7 cells were stained with APC conjugated anti-TREM-1 antibody (eBioscience). Cell sorting was performed using LSRII (BD Bioscience).

[2] = system: collagen-induced arthritis; experiment: Collagen-induced arthritis (CIA) mouse model; settings: for enlargement of the liver: CIA mice, 20 mg/kg
Method: Clinical score was monitored every day after boosting during 18 days. […] The dosage of all compounds was identical in each group.
Briefly, DBA/1J mice were injected with chicken type II collagen on day 1 and then each animal received a boost injection of collagen on Day 21. Compound treatment, initiated on day 3-post boost injection, was administered intraperitoneally at 20 mg/kg twice-a-day for a total of 16 days. […] Mice: All mice were maintained in a specific pathogen-free environment in accordance with institutional protocol. […] Female DBA/1J mice were purchased from Taconic. CIA was induced in 8 weeks as previously described^40.

RORα = experiment: Gal4-RORα co-transfection promoter-reporter assay; format: cell-based; settings: Gal4 assay format
Method: (§2) Reporter gene assays: Twenty-four hours before transfection, HEK293T cells were plated in 96-well plates at a density of 15×10^3 cells per well. UAS:luciferase reporter and Ga14-RORa, Gal4-RORb, Gal4-RORγ, Gal4-LXRα, or Gal4 PPARγ DNA co-transfections were performed using X-tremeGENE 9 (Roche). Twenty-four hours after transfection, the cells were treated with vehicle or compound. Twenty-four hours after treatment, the luciferase activity was measured using the Dual-Glo luciferase assay system (Promega). Results were analyzed using GraphPad Prism software.

RORγ = biological target: T1, RORγ (Homo sapiens, UniProt P51449); experiment: Gal4-RORγ co-transfection promoter-reporter assay; settings: cell-based promoter-reporter Gal4 assay format, HEK293T cells
T1 sequence (P51449 269-518 limits assumed): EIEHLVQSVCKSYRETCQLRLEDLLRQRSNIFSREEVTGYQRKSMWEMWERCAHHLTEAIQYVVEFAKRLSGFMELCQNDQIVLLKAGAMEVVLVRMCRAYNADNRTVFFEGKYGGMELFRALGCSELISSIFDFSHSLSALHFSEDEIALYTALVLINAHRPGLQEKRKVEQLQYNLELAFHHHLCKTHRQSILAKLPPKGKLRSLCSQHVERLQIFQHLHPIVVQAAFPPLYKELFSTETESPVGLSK

LXRα = biological target: T2, LXRα (Homo sapiens, UniProt Q13133); experiment: Gal4-LXRα co-transfection promoter-reporter assay; format: cell-based; settings: HEK293T cells, read-out: LXR agonist activity EC50
T2 sequence (Q13133 209-447 limits assumed): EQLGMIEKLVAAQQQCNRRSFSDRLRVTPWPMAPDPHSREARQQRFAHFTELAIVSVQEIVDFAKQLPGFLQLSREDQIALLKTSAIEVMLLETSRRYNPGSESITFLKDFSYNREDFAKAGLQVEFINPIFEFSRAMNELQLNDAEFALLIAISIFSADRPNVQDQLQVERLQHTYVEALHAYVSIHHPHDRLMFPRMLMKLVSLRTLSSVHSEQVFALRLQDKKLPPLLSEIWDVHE
Text: FIGS. 1A to 1E: Pan modulator with poly-pharmacology. […] FIG. 1D is a graph showing PPARγ target genes (aP2 and CD36) expression in OP9 cells with and without MDI (IBMX, dexamethasone, insulin) treatment. […] SR1903 is represented as orange sticks while PPARγ, RORγ, and LXRβ are depicted as blue ribbons respectively. Specific residues driving the interaction labelled and shown as sticks as well. […] FIG. 1F are graphs showing RORγ target genes (IL17A and IL17F) expression in EL4 cells.
as §2

RORβ = experiment: Gal4-RORβ co-transfection promoter-reporter assay; format: cell-based; settings: Gal4 assay format
Method: as §2

EL4 cells = experiment: RORγ target gene expression in PMA/ionomycin stimulated EL4 cells; format: cell-based; settings: PMA and ionomycin, compound at 10 μM
Text: FIG. 1D is a graph showing PPARγ target genes (aP2 and CD36) expression in OP9 cells with and without MDI (IBMX, dexamethasone, insulin) treatment. […] Specific residues driving the interaction labelled and shown as sticks as well. […] Quantitative RT-PCR: Total RNA was extracted from EL4 or RAW264.7 cells using RNeasy Plus Micro Kit (Qiagen) and the RNA was reverse transcribed using the ABI reverse transcription kit (Applied Biosystems/Thermo Fisher Scientific, Waltham MA). Quantitative PCR was performed with a 7900HT Fast Real Time PCR System (Applied Biosystems) using SYBR green (Roche).

TREM-1 [3] = experiment: TREM-1 gene expression in LPS-stimulated RAW264.7 cells (RNA sequencing, qPCR); format: cell-based, mouse; settings: 26 hr exposure
Method: as §1
Quantitative RT-PCR: Total RNA was extracted from EL4 or RAW264.7 cells using RNeasy Plus Micro Kit (Qiagen) and the RNA was reverse transcribed using the ABI reverse transcription kit (Applied Biosystems/Thermo Fisher Scientific, Waltham MA). Quantitative PCR was performed with a 7900HT Fast Real Time PCR System (Applied Biosystems) using SYBR green (Roche).
mRNA sequencing analysis: RAW264.7 cells RNA extraction protocol for RNA seq was derived from Qiagen Kit-74106. Total RNA was quantified using the Qubit 2.0 Fluorometer (Invitrogen, Carlsbad, CA) and run on the Agilent 2100 Bioanalyzer (Agilent Technologies, Santa Clara, CA) for quality assessment. RNA samples of good quality with RNA Integrity Number (RIN)>8.0 were further processed. A RNase-free working environment was maintained and RNase-free tips, Eppendorf tubes and plates were utilized for the subsequent steps. Messenger RNA was selectively isolated from total RNA (300 ng input) using poly-T oligos attached to magnetic beads and converted to sequence-ready libraries using the TruSeq stranded mRNA sample prep protocol (Cat. #: RS-122-2101, Illumina, San Diego, CA). The final libraries were validated on the bioanalyzer DNA chips and qPCR quantified using primers that recognize the illumina adaptors. The libraries were then pooled at equimolar ratios, quantified using qPCR and loaded onto the NextSeq 500 flow cell at 1.8 pM final concentration. They were sequenced using the high-output, paired-end, 75-bp chemistry. Demultiplexed and quality filtered raw reads (fastq) generated from the NextSeq 500 were trimmed (adaptor sequences) using Flexbar 2.4 and aligned to the mouse reference database (mm9) using TopHat version 2.0.9 (Trapnell et al., 2009). HTseq-count version 0.6.1 was used to generate gene counts and differential gene expression analysis was performed using Deseq2 (Anders and Huber, 2010).

[4] = system: collagen-induced arthritis; settings: Chang et al. (2014); cited from earlier work
TH17 cells = settings: Chang et al. study; cited from earlier work

Row | SMILES | LPS-induced TREM1 cell surface expression (TREM-1 [1]) | enlargement of the liver [2] | arthritis clinical score ([2]; Day 34, 20 mg/kg i.p. twice-a-day, vehicle 13.6±2.9) | activity on RORα (RORα) | pIC50 (RORγ) | pEC50 (LXRα) | activity on RORβ (RORβ) | IL17F expression (EL4 cells) | LPS induction of TREM-1 gene expression (qPCR) (TREM-1 [3]) | therapeutic effect in CIA mice [4] | IL-17 and IL-23R expression (TH17 cells) | TH17 cell differentiation (TH17 cells)
1 | O=C(O)Cc1cccc(OCCCN(Cc2cccc(C(F)(F)F)c2Cl)CC(c2ccccc2)c2ccccc2)c1 [GW3965, reference compound] | only modestly dampened | did not cause enlargement of the liver | only very modest effects | lack activity | 4.37 | 6.81 | lack activity | lacked the ability to repress | significantly repressed | – | – | –
2 | O=S(=O)(c1ccccc1)N(CC(F)(F)F)c1ccc(C(O)(C(F)(F)F)C(F)(F)F)cc1 [T0901317, N-(2,2,2-trifluoroethyl)-N-[4-[2,2,2-trifluoro-1-hydroxy-1-(trifluoromethyl)ethyl]phenyl]-benzenesulfonamide, reference compound] | – | negative effect on liver | – | – | – | – | – | – | – | – | – | –
3 | OC(c1ccc(-c2ccc(CN3CCN(Cc4ccncc4)CC3)cc2)c(F)c1)(C(F)(F)F)C(F)(F)F [SR2211] | – | – | – | – | – | – | – | – | – | robust therapeutic effect | reduced | inhibited
